Measurements from PubChem BioAssay AID330 (DTP/NCI, 2004).
“And” between values parts separate entries of the source, which are not always exact repeats. Equal entries are not always repeated. Inconclusive results and toxic doses are left out. Rule for the calls: active = survival T/C of 150% or more; inactive = T/C below 125% in these data.

Tested on: P388 leukemia ip, CD2F1 mice, survival T/C
Assay: NCI In Vivo Anticancer Drug Screen. Data for tumor model P388 Leukemia (intraperitoneal) in CD2F1 (CDF1) mice
Conditions: endpoint: median survival time, higher = longer survival
Summary of the method: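 Mice carrying the transplanted tumor received test compound or vehicle. Survival was recorded in each group, and the value is the treated-group measurement divided by that of the vehicle-treated control group.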

[1] = dose: 50.0 mg/kg/injection, schedule: Q01DX005 (ip), vehicle: Klucel (hydroxypropylcellulose) (HPC)
[2] = dose: 100.0 mg/kg/injection, schedule: Q01DX005 (ip), vehicle: Klucel (hydroxypropylcellulose) (HPC)
[3] = dose: 200.0 mg/kg/injection, schedule: Q01DX005 (ip), vehicle: Klucel (hydroxypropylcellulose) (HPC)

Measured: T/C

C=C1C(=O)OC2/C=C(\C)CC/C=C(/C=O)C(OC)C(OC(=O)C(C)C)C12 (stereo not drawn)
inactive: dose: 6.25 mg/kg/injection, schedule: Q01DX009 (ip), vehicle: Klucel (hydroxypropylcellulose) (HPC) 106 % of control | dose: 12.5 mg/kg/injection, schedule: Q01DX009 (ip), vehicle: Klucel (hydroxypropylcellulose) (HPC) 97 % of control | dose: 25.0 mg/kg/injection, schedule: Q01DX009 (ip), vehicle: Klucel (hydroxypropylcellulose) (HPC) 100 % of control

C[P+]1(C)CCc2c1ccc1ccccc21
inactive: dose: 50.0 mg/kg/injection, schedule: Q01DX009 (ip), vehicle: saline with Tween-80 102 % of control

O=P(O)(O)SP(=O)(O)O.[Mn]
inactive: dose: 100.0 mg/kg/injection, schedule: Q04DX003 (ip), vehicle: Klucel (hydroxypropylcellulose) (HPC) 105 % of control | dose: 200.0 mg/kg/injection, schedule: Q04DX003 (ip), vehicle: Klucel (hydroxypropylcellulose) (HPC) 110 % of control | dose: 400.0 mg/kg/injection, schedule: Q04DX003 (ip), vehicle: Klucel (hydroxypropylcellulose) (HPC) 119 % of control

CC(C)(C)c1cc(OCC2CO2)c(C(C)(C)C)cc1OCC1CO1 (stereo not drawn)
inactive: dose: 50.0 mg/kg/injection, schedule: Q01DX009 (ip), vehicle: Klucel (hydroxypropylcellulose) (HPC) 107 % of control | dose: 100.0 mg/kg/injection, schedule: Q01DX009 (ip), vehicle: Klucel (hydroxypropylcellulose) (HPC) 105 % of control | dose: 200.0 mg/kg/injection, schedule: Q01DX009 (ip), vehicle: Klucel (hydroxypropylcellulose) (HPC) 106 % of control | dose: 400.0 mg/kg/injection, schedule: Q01DX009 (ip), vehicle: Klucel (hydroxypropylcellulose) (HPC) 116 % of control

C=C(CN1CCN(C)CC1)C(=O)c1ccccc1
inactive: dose: 1.89 mg/kg/injection, schedule: Q01DX005 (ip), vehicle: saline 113 % of control | dose: 3.75 mg/kg/injection, schedule: Q01DX005 (ip), vehicle: saline 116 % of control | dose: 7.5 mg/kg/injection, schedule: Q01DX005 (ip), vehicle: saline 105 % of control and 112 % of control

COc1cccc(C=Nc2cc(C)ccn2)c1O.COc1cccc(C=Nc2cc(C)ccn2)c1O.[Cu]
inactive: dose: 6.25 mg/kg/injection, schedule: Q01DX005 (ip), vehicle: saline with Tween-80 99 % of control | dose: 12.5 mg/kg/injection, schedule: Q01DX005 (ip), vehicle: saline with Tween-80 100 % of control | dose: 25.0 mg/kg/injection, schedule: Q01DX005 (ip), vehicle: saline with Tween-80 96 % of control

C/C(=N/N/C=N/S(C)(=O)=O)c1ccccc1
inactive: [1] 103 % of control | [2] 100 % of control | [3] 99 % of control

Nc1ccc(S(=O)(=O)NC(CSSCC(NS(=O)(=O)c2ccc(N)cc2)C(=O)O)C(=O)O)cc1 (stereo not drawn)
inactive: [1] 110 % of control | [2] 101 % of control | [3] 113 % of control

Cn1c(N2CCOCC2)cc2nc3ccccc3n2c1=O
inactive: dose: 60.0 mg/kg/injection, schedule: Q01DX005 (ip), vehicle: saline with Tween-80 96 % of control | dose: 120.0 mg/kg/injection, schedule: Q01DX005 (ip), vehicle: saline with Tween-80 98 % of control | dose: 240.0 mg/kg/injection, schedule: Q01DX005 (ip), vehicle: saline with Tween-80 96 % of control

Nc1n[nH]c2c3c([nH]c(=O)c12)-c1ccccc1SC3
inactive: dose: 100.0 mg/kg/injection, schedule: Q04DX002 (ip), vehicle: Klucel (hydroxypropylcellulose) (HPC) 102 % of control | dose: 200.0 mg/kg/injection, schedule: Q04DX002 (ip), vehicle: Klucel (hydroxypropylcellulose) (HPC) 88 % of control | dose: 400.0 mg/kg/injection, schedule: Q04DX002 (ip), vehicle: Klucel (hydroxypropylcellulose) (HPC) 86 % of control

C=C1CCN(c2ccccc2)C1=O
inactive: dose: 4.0 mg/kg/injection, schedule: Q01DX009 (ip), vehicle: saline + alcohol 107 % of control | dose: 8.0 mg/kg/injection, schedule: Q01DX009 (ip), vehicle: saline + alcohol 92 % of control | dose: 16.0 mg/kg/injection, schedule: Q01DX009 (ip), vehicle: saline + alcohol 105 % of control | dose: 32.0 mg/kg/injection, schedule: Q01DX009 (ip), vehicle: saline + alcohol 101 % of control | dose: 64.0 mg/kg/injection, schedule: Q01DX009 (ip), vehicle: saline + alcohol 107 % of control

CCN(CC)Cc1ccc(N)cc1O
inactive: dose: 50.0 mg/kg/injection, schedule: Q01DX009 (ip), vehicle: saline 106 % of control and 107 % of control | dose: 100.0 mg/kg/injection, schedule: Q01DX009 (ip), vehicle: saline 97 % of control and 98 % of control | dose: 200.0 mg/kg/injection, schedule: Q01DX009 (ip), vehicle: saline 99 % of control and 97 % of control

NC(=S)c1sc(-c2ccccc2)cc1N
inactive: dose: 60.0 mg/kg/injection, schedule: Q01DX005 (ip), vehicle: Klucel (hydroxypropylcellulose) (HPC) 108 % of control | dose: 120.0 mg/kg/injection, schedule: Q01DX005 (ip), vehicle: Klucel (hydroxypropylcellulose) (HPC) 106 % of control | dose: 240.0 mg/kg/injection, schedule: Q01DX005 (ip), vehicle: Klucel (hydroxypropylcellulose) (HPC) 104 % of control

COc1ccc(C(Cc2cc(OC)c(OC)cc2Br)NC=O)cc1OC (stereo not drawn)
inactive: dose: 50.0 mg/kg/injection, schedule: Q01DX005 (ip), vehicle: saline with Tween-80 89 % of control | dose: 100.0 mg/kg/injection, schedule: Q01DX005 (ip), vehicle: saline with Tween-80 90 % of control | dose: 200.0 mg/kg/injection, schedule: Q01DX005 (ip), vehicle: saline with Tween-80 91 % of control

C[N+]1(C)CCC(C(=O)c2ccccc2)CC1
inactive: dose: 6.25 mg/kg/injection, schedule: Q01DX005 (ip), vehicle: saline 108 % of control | dose: 12.5 mg/kg/injection, schedule: Q01DX005 (ip), vehicle: saline 96 % of control | dose: 25.0 mg/kg/injection, schedule: Q01DX005 (ip), vehicle: saline 95 % of control

COCC(CC(=O)O)C(C(=O)O)C(=O)O (stereo not drawn)
inactive: dose: 12.5 mg/kg/injection, schedule: Q01DX009 (ip), vehicle: water 100 % of control | dose: 25.0 mg/kg/injection, schedule: Q01DX009 (ip), vehicle: water 106 % of control | dose: 50.0 mg/kg/injection, schedule: Q01DX009 (ip), vehicle: water 106 % of control | dose: 100.0 mg/kg/injection, schedule: Q01DX009 (ip), vehicle: water 93 % of control | dose: 200.0 mg/kg/injection, schedule: Q01DX009 (ip), vehicle: water 92 % of control

c1ccc([P+](CCN2Cc3ccccc3C2)(c2ccccc2)c2ccccc2)cc1
inactive: dose: 0.78 mg/kg/injection, schedule: Q01DX009 (ip), vehicle: other 119 % of control | dose: 0.78 mg/kg/injection, schedule: Q01DX009 (ip), vehicle: saline 101 % of control | dose: 1.56 mg/kg/injection, schedule: Q01DX009 (ip), vehicle: other 110 % of control | dose: 1.56 mg/kg/injection, schedule: Q01DX009 (ip), vehicle: saline 101 % of control | dose: 3.12 mg/kg/injection, schedule: Q01DX009 (ip), vehicle: saline 107 % of control | dose: 3.13 mg/kg/injection, schedule: Q01DX009 (ip), vehicle: other 114 % of control | dose: 3.13 mg/kg/injection, schedule: Q01DX009 (ip), vehicle: saline 105 % of control | dose: 6.25 mg/kg/injection, schedule: Q01DX009 (ip), vehicle: other 118 % of control | dose: 6.25 mg/kg/injection, schedule: Q01DX009 (ip), vehicle: saline 109 % of control and 119 % of control | dose: 12.5 mg/kg/injection, schedule: Q01DX009 (ip), vehicle: other 108 % of control | dose: 12.5 mg/kg/injection, schedule: Q01DX009 (ip), vehicle: saline 120 % of control and 122 % of control | dose: 25.0 mg/kg/injection, schedule: Q01DX009 (ip), vehicle: other 88 % of control

CS(=O)(=O)c1nnc(-c2cccc[n+]2[O-])s1
inactive: [1] 116 % of control | [2] 114 % of control

CSC1=NNC(C)(C)C(N)=N1
inactive: dose: 100.0 mg/kg/injection, schedule: Q01DX001 (ip), vehicle: saline 98 % of control | dose: 200.0 mg/kg/injection, schedule: Q01DX001 (ip), vehicle: saline 97 % of control | dose: 400.0 mg/kg/injection, schedule: Q01DX001 (ip), vehicle: saline 100 % of control
